System: CK-1 male mice
Experiment: Climbing mouse assay (apomorphine-induced climbing)
Type: in vivo
Settings: Mus musculus; ip; apomorphine 1.5 mg/kg sc challenge; climbing score vs control group set to 100%; linear regression
Description: Antipsychotic activity is determined in the climbing mice assay by a method similar to those described by P. Protais, et al., Psychopharmacol., 50:1 (1976) and B. Costall, Eur. J. Pharmacol., 50:39 (1978).
Subject […] male mice (23-27 grams) are group-housed under standard laboratory conditions. The mice are individually placed in wire mesh stick cages (4″×10″) and are allowed one hour for adaption and exploration of the new environment. Then apomorphine is injected subcutaneously at 1.5 mg/kg a dose causing climbing in all subjects for 30 minutes.
For evaluation of climbing, 3 readings are taken at 10. 20, and 30 minutes after apomorphine administration according to the following scale:
Mice consistently climbing before the injection of apomorphine are discarded.
With full-developed apomorphine climbing, the animals are hanging on to the cage walls, rather motionless, over long periods of time. By contrast, climbs due to mere motor stimulation usually only last a few seconds.
The climbing scores are individually totaled (maximal score: 6 per mouse over 3readings) and the total score of the control group (vehicle intraperitoneally-apomorphine subcutaneously) is set to 100%.

Compound	ED50
COc1cc(C(C)O)ccc1OCCCCN1CCC(c2noc3ccccc23)CC1 (stereo not shown) [1-[4-[4-[4-(1,2-Benzisoxazol-3-yl)-1-piperidinyl]butoxy]-3-methoxyphenyl]ethanol]	1.6 mg/kg

Same assay, conditions: apomorphine 1.5 mg/kg sc challenge, climbing score vs control group set to 100%, linear regression

Compound	CLIMBING MOUSE ASSAY (ED50 mg/kg, ip)
6-Fluoro-3-[1-[3-[(isoquinol-5-yl)oxy]propyl]-4-piperidinyl]-1,2-benzisoxazole sesquifumarate	0.172 mg/kg
CC(=O)c1ccc(CCCCN2CCC(c3noc4cc(F)ccc34)CC2)cc1 [1-[4-(4′-Acetophenyl)butyl]-4-(6-fluoro-1,2-benzisoxazol-3-yl)piperidine]	0.34 mg/kg
COc1cc(C(C)=O)ccc1OCCCN1CCC(c2noc3ccccc23)CC1 [1-[4-[3-[4-(1,2-Benzisoxazol-3-yl)-1-piperadinyl]propoxyl]-3-methoxyphenyl]ethanone]	0.67 mg/kg
COc1cc(C(C)=O)ccc1OCCCN1CCC(c2noc3cc(F)ccc23)CC1 [1-[4-[3-[4-(6-Fluoro-1,2-benzisoxazol-3-yl)-1-piperadinyl]propoxy]-3-methoxyphenyl]ethanone]	0.095 mg/kg
COc1cc(C(C)=O)ccc1OCCCCN1CCC(c2noc3cc(F)ccc23)CC1 [1-[4-[4-[4-(6-Fluoro-1,2-benzisoxazol-3-yl)-1-piperidinyl)butoxy]-3-methoxyohenylethanone]	0.68 mg/kg
Fc1ccc2c(C3CCN(CCC4COc5ccccc5O4)CC3)noc2c1 (stereo not shown) [2-[4-(6-Fluoro-1,2-benzisoxazol-3-yl)-1-piperidinyl]ethyl]-1,4-benzodioxan]	0.29 mg/kg

System: mice
Experiment: Phenyl p-quinone writhing assay in mice
Type: in vivo
Settings: dose effecting approximately 50% inhibition of writhing in mice
From the text: Some of the compounds of the present invention are also useful as analgetics due so their ability to alleviate pain in mammals. […] Exptl. Biol. Med., 95:729 (1937). Thus, for instance the subcutaneous dose effecting an approximately 50% inhibition of writhing (ED50) in mice produced in this assay is as shown in Table 2.

Compound	INHIBITION OF PHENYLQUINONE INDUCED WRITHING ED50 mg/kg, sc
COc1cc(C(C)=O)ccc1OCCCN1CCC(c2noc3ccccc23)CC1 [1-[4-[3-[4-(1,2-Benzisoxazol-3-yl)-1-piperadinyl]propoxyl]-3-methoxyphenyl]ethanone]	0.17 mg/kg
COc1cc(C(C)=O)ccc1OCCCN1CCC(c2noc3cc(F)ccc23)CC1 [1-[4-[3-[4-(6-Fluoro-1,2-benzisoxazol-3-yl)-1-piperadinyl]propoxy]-3-methoxyphenyl]ethanone]	0.03 mg/kg

System: not given
Experiment: not given
Settings: not given

melting point	Compound
142 to 143 °C	O=C1c2cccc(F)c2C(=O)N1CCN1CCC(c2noc3cc(F)ccc23)CC1 [Example 155, N-[2-[4-(6-Fluoro-1,2-benzisoxazol-3-yl)-1-piperidinyl]ethyl]-3-fluorophthalimide]
138 to 140 °C	Cc1ccc2c(c1)C(=O)N(CCN1CCC(c3noc4cc(F)ccc34)CC1)C2=O [Example 157, N-[2-[4-(6-Fluoro-1,2-benzisoxazol-3-yl)-1-piperidinyl]ethyl]-4-methylphthalimide]
148 to 149 °C	O=C1c2ccccc2C(=O)N1CCN1CCC(c2noc3cc(F)ccc23)CC1 [N-[2-[4-(6-Fluoro-1,2-benzisoxazol-3-yl)-1-piperidinyl]ethyl]phthalimide]

Compound	melting point
COc1cc(C(C)O)ccc1OCCCCN1CCC(c2noc3ccccc23)CC1 (stereo not shown) [1-[4-[4-[4-(1,2-Benzisoxazol-3-yl)-1-piperidinyl]butoxy]-3-methoxyphenyl]ethanol]	99 to 101 °C

Reference: USRE39198E1, “Heteroarylpiperidines, pyrrolidines and piperazines and their use as antipsychotics and analgesics” (Aventis Pharmaceuticals Inc., priority 1989, dated 2006)
